Results published in ChEMBL document CHEMBL4256942, “Exo Olefin-Containing Nuclear Transport Modulators and Uses Thereof” (2016).

Molecular target: Exportin-1 (Homo sapiens, UniProt O14980)
Experiment: Inhibition of CRM1 in human HeLa cells expressing GFP which is N-terminally fused to nuclear localization and C-terminally fused to nuclear export signal of PKI assesed as reduction in GFP subcellular localization incubated for 3 hrs by nuclear export assay
Assay type: cell-based

Chain of Exportin-1 (O14980 whole entry, the tested form may be a part): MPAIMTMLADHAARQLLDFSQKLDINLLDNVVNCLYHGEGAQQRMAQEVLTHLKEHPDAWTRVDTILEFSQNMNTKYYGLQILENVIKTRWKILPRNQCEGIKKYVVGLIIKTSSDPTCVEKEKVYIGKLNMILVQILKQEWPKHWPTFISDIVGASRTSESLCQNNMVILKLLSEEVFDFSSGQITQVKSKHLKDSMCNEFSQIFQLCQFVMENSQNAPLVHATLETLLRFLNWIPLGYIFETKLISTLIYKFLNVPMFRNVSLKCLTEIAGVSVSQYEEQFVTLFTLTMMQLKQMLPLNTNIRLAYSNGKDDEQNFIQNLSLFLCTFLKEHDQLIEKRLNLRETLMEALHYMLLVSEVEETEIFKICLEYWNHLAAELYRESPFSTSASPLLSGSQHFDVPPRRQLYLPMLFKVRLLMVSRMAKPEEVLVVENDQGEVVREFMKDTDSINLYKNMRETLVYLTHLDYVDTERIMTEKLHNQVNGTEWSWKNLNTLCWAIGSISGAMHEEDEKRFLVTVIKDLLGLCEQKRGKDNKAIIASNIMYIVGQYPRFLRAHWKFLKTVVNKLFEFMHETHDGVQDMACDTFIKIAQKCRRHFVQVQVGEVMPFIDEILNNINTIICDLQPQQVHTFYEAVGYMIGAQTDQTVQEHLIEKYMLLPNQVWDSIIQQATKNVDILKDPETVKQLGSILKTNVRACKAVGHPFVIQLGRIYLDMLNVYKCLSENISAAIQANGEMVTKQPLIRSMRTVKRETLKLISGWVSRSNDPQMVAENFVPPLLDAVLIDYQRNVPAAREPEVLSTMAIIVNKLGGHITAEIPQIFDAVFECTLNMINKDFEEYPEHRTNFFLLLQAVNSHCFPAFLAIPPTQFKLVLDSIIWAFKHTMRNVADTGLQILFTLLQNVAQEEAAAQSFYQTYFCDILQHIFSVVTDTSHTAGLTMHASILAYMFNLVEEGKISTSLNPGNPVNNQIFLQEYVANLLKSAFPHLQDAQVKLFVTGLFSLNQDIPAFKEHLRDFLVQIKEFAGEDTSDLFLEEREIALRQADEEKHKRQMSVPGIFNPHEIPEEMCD

`C=C(Cn1nnc(-c2cccc(Cl)c2)n1)C(=O)OCC` showed an EC50 of 30 µM.

`C=C(Cn1nnc(-c2cccc(C(F)(F)F)c2)n1)C(=O)OCC` was tested, and the EC50 was 30 µM.
